From patent publication US12077503B2, “Substituted cyclic amides and their use as herbicides” (FMC CORPORATION, priority 2015, dated 2024)

Assays:
Type in all cases: in vivo
[1] = test system: rice (Oryra sativa); assay: Test B flooded paddy test; conditions: Flood, 500 g ai/ha; 0 to 100 scale where 0 is no effect and 100 is complete control; 13 to 15 d
Outline: (§1)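 Evaluation by eye, against controls, occurred 13–15 d post-treatment in a greenhouse, using a 0 (no effect) to 100 (complete control) scale. Application was into the paddy water, 3 cm deep over the soil, on 2-leaf plants.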

[2] = test system: barnyardgrass (Echinochloa crus-galli); assay: Test B flooded paddy test; conditions: Flood, 500 g ai/ha; 0 to 100 scale where 0 is no effect and 100 is complete control; 13 to 15 d
Outline: as §1

[3] = test system: ducksalad (Heteranthera limosa); assay: Test B flooded paddy test; conditions: Flood, 500 g ai/ha; 0 to 100 scale where 0 is no effect and 100 is complete control; 13 to 15 d
Outline: as §1

[4] = test system: sedge, umbrella (small-flower umbrella sedge, Cyperus difformis); assay: Test B flooded paddy test; conditions: Flood, 500 g ai/ha; 0 to 100 scale where 0 is no effect and 100 is complete control; 13 to 15 d
Outline: as §1

[5] = test system: Galium (catchweed bedstraw, Galium aparine); assay: Test A postemergence; conditions: postemergence, 0 to 100 scale (0 no effect, 100 complete control)
Outline: (§2)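 Seeded soil received test chemicals as a preemergence directed spray, and seedlings at one to two leaves, 2–10 cm tall, received them postemergence, in a non-phytotoxic, surfactant-containing solvent mixture. Pots were held in a greenhouse for approximately 10 d, then rated for injury from 0, no effect, to 100, complete control.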

[6] = test system: ragweed (common ragweed, Ambrosia elatior); assay: Test A postemergence; conditions: postemergence, 0 to 100 scale (0 no effect, 100 complete control)
Outline: as §2

[7] = test system: ryegrass, Italian (Italian ryegrass, Lolium multiflorum); assay: Test A postemergence; conditions: postemergence, 0 to 100 scale (0 no effect, 100 complete control)
Outline: as §2

[8] = test system: pigweed (Amaranthus retroflexus); assay: Test A postemergence; conditions: postemergence, 0 to 100 scale (0 no effect, 100 complete control)
Outline: as §2

[9] = test system: barnyardgrass (Echinochloa crus-galli); assay: Test A postemergence; conditions: postemergence, 0 to 100 scale (0 no effect, 100 complete control)
Outline: as §2

[10] = test system: corn (Zea mays); assay: Test A postemergence; conditions: postemergence, 0 to 100 scale (0 no effect, 100 complete control)
Outline: as §2

[11] = test system: wheat (Triticum aestivum); assay: Test A postemergence; conditions: postemergence, 0 to 100 scale (0 no effect, 100 complete control)
Outline: as §2

[12] = test system: blackgrass (Alopecurus myosuroides); assay: Test A postemergence; conditions: postemergence, 0 to 100 scale (0 no effect, 100 complete control)
Outline: as §2

[13] = test system: Kochia (Kochia scoparia); assay: Test A postemergence; conditions: postemergence, 0 to 100 scale (0 no effect, 100 complete control)
Outline: as §2

[14] = test system: giant foxtail (Setaria faberii); assay: Test A postemergence; conditions: postemergence, 0 to 100 scale (0 no effect, 100 complete control)
Outline: as §2

[15] = test system: ragweed (common ragweed, Ambrosia elatior); assay: Test A preemergence; conditions: preemergence
Outline: as §2

[16] = test system: ryegrass, Italian (Italian ryegrass, Lolium multiflorum); assay: Test A preemergence; conditions: preemergence
Outline: as §2

[17] = test system: pigweed (Amaranthus retroflexus); assay: Test A preemergence; conditions: preemergence
[18] = test system: barnyardgrass (Echinochloa crus-galli); assay: Test A preemergence; conditions: preemergence
Outline: as §2

[19] = test system: Kochia (Kochia scoparia); assay: Test A preemergence; conditions: preemergence
Outline: as §2

[20] = test system: giant foxtail (Setaria faberii); assay: Test A preemergence; conditions: preemergence
Outline: as §2

[21] = 125 g ai/ha, visual injury after approximately 10 d
[22] = 500 g ai/ha, visual injury, approx. 10 d
[23] = 125 g ai/ha, visual rating after approx. 10 d, 0 to 100 scale where 0 is no effect and 100 is complete control
[24] = 500 g ai/ha, 0 to 100 scale, 0 = no effect, 100 = complete control

O=C1NCC(c2cccc3ccccc23)C1C(=O)Nc1ccccc1C(F)(F)F (racemic) [Compound 712]
0: Plant response rating, Rice [1] | Plant response rating, Barnyardgrass [2] | Plant response rating, Ducksalad [3] | Plant response rating, Sedge, Umbrella [4] | Plant response rating, Galium [5, 21] | Plant response rating, Galium [5, 22] | Plant response rating, Ragweed [6, 21] | Plant response rating, Ragweed [6, 22] | Plant response rating, Ryegrass, Italian [7, 21] | Plant response rating, Ryegrass, Italian [7, 22] | Plant response rating, Pigweed [8, 21] | Plant response rating, Pigweed [8, 22] | Plant response rating, Barnyardgrass [9, 21] | Plant response rating, Barnyardgrass [9, 22] | Plant response rating, Corn [10, 21] | Plant response rating, Corn [10, 22] | Plant response rating, Wheat [11, 21] | Plant response rating, Wheat [11, 22] | Plant response rating, Blackgrass [12, 21] | Plant response rating, Blackgrass [12, 22] | Plant response rating, Kochia [13, 21] | Plant response rating, Kochia [13, 22] | Plant response rating, Foxtail, Giant [14, 21] | Plant response rating, Foxtail, Giant [14, 22] | Plant response rating, Ragweed [15, 23] | Plant response rating, Ragweed [15, 24] | Plant response rating, Ryegrass, Italian [16, 23] | Plant response rating, Ryegrass, Italian [16, 24] | Plant response rating, Pigweed [17, 23] | Plant response rating, Pigweed [17, 24] | Plant response rating, Barnyardgrass [18, 23] | Plant response rating, Barnyardgrass [18, 24] | Plant response rating, Kochia [19, 23] | Plant response rating, Kochia [19, 24] | Plant response rating, Foxtail, Giant [20, 23] | Plant response rating, Foxtail, Giant [20, 24]
